Molecules are shown by their SMILES.

The subject of this experiment is green peach aphid (Myzus persicae). The experiment is described as follows: Myzus persicae - spray test on cabbage leaves. The class given is in vivo. Conditions: mortality, 1600 ppm, spray on infested cabbage leaves. Here is the method:
The expected efficacy of a given combination of two compounds is calculated as follows (see Colby, S.R., “Calculating Synergistic and antagonistic Responses of Herbicide Combinations”, Weeds 15, pp. 20-22, 1967):
If • X is the efficacy expressed in % mortality of the untreated control for test compound A at a concentration of m ppm or m g/ha, • Y is the efficacy expressed in % mortality of the untreated control for test compound B at a concentration of n ppm or n g/ha, • E is the efficacy expressed in % mortality of the untreated control using the mixture of A and B at m and n ppm respectively m and n g/ha, • then is
If the observed insecticidal efficacy of the combination is higher than the one calculated as “E”, then the combination of the two compounds is more than additive, i.e., there is a synergistic effect.
Myzus persicae—Spray Test
• Solvent: 7 parts by weight of dimethylformamide • Emulsifier: alkylaryl polyglycol ether
To produce a suitable preparation of active compound, 1 part by weight of active compound is mixed with the stated amount of solvent and is diluted with water, containing an emulsifier concentration of 1000 ppm, to the desired concentration. […]
After the specified period of time mortality in % is determined. […] The mortality values determined thus are recalculated using the Colby-formula (see sheet 1).

`C=C(C)[C@H]1CC=C(C)CC1` [(R)-(+)-limonene 97%, (R)-(+)-limonene]: the “Efficacy in % after 6 days” value was found to be 0%.
